Assay results from patent US20120055467A1, “METERED-DOSE INHALER AND METHOD OF USING THE SAME” (CHIESI FARMACEUTICI S.P.A., priority 2010, published 2012).

Legend:
[1] = Andersen Cascade Impactor (ACI) evaluation of pMDI spray drug delivery characteristics; assay type: physicochemical
Experimental: Spray characteristics of the system were evaluated by an Andersen cascade impactor fitted with a USP throat (App. 1, USP 33). […] This was repeated twice. Pre- and post-shot weights were recorded. […] The solutions were analysed by using a UPLC/MS (Ultra Performance Liquid Chromatography/Mass Spectrometry) system for the determination of the drug deposition.

[2] = Plume duration measured with in-line PC microphone, dual orifice actuator; assay type: physicochemical; details: Ex 8, individual can
Experimental: For Example 8, plume duration was measured using an in-line PC microphone in conjunction with Audacity 1.2.6 software.
Formulation combinations 17a-18a and 17b-18b are fired through the dual orifice actuator, as shown at 121 in FIG. 17B. Plume duration was measured for the simultaneous actuation of two 25 μL valves and two 63 μL valves and compared with plume duration for the individual cans. […] The two formulation combinations were: […]

[3] = Ex 1, Dual MDI, Formulations 1+2, single 0.22 mm actuator orifice, mean, n=3
[4] = Ex 1, Dual MDI, Formulations 1+2, single 0.30 mm actuator orifice, mean, n=3
[5] = Ex 1, Standard MDI, single can, 0.22 mm actuator orifice, mean, n=3
[6] = Ex 1, Standard MDI, single can, 0.30 mm actuator orifice, mean, n=3
[7] = Ex 2/3, Standard MDI, single can, 0.22 mm orifice, mean, n=3
[8] = Ex 2, Dual MDI, Formulations 3+4, single 0.22 mm orifice, mean, n=2
[9] = Ex 4, Dual-MDI, Formulation 6 + Formulation 7 (HFA 134a), single 0.22 mm orifice, mean, n=2
[10] = Ex 4, Standard MDI, high ethanol (26% w/w) BDP 100 μg, 0.22 mm orifice, mean, n=2
[11] = Ex 6, dual can, BDP 25 μL + BUD 100 μL, single 0.22 mm orifice, mean, n=2
[12] = Ex 6, dual can, BDP 50 μL + BUD 50 μL, single 0.22 mm orifice, mean, n=2
[13] = Ex 6, dual can, BDP 100 μL + BUD 25 μL, single 0.22 mm orifice, mean, n=2
[14] = Ex 6, single can, 50 μg dose, metered volume 25 μL, 0.22 mm actuator, mean, n=2
[15] = Ex 6, single can, 50 μg dose, metered volume 50 μL, 0.22 mm actuator, mean, n=2
[16] = Ex 6, single can, 50 μg dose, metered volume 100 μL, 0.22 mm actuator, mean, n=2
[17] = Ex 7, Dual can, Formulations 15+16 simultaneously, dual orifice actuator, mean, n=2
[18] = Ex 7, Single can through dual orifice actuator, mean, n=2
[19] = Ex 9, Dual can, Formulations 17a+18a simultaneously, dual orifice actuator, mean, n=2
[20] = Ex 9, Single can through dual orifice actuator, mean, n=2
[21] = Ex 11, Dual can single orifice, Formulations 9+12, 0.30 mm orifice, mean, n=2
[22] = Ex 11, Single reservoir conventional MDI, 50/50, 0.30 mm orifice, mean, n=2
[23] = Ex 19, dual reservoir-single orifice prototype (FIG. 14B)
[24] = Ex 20, triple reservoir-single orifice prototype (FIG. 16B)

Compound: CCC(=O)OCC(=O)[C@@]1(OC(=O)CC)[C@@H](C)C[C@H]2[C@@H]3CCC4=CC(=O)C=C[C@]4(C)[C@@]3(Cl)[C@@H](O)C[C@@]21C [BDP, Beclometasone dipropionate]
- Delivered Dose ([1]; Ex 1, Dual MDI, Formulations 1+2 (each BDP 50 μg/25 μl, 13% ethanol, 1.3% glycerol) mixed, single 0.22 mm actuator orifice, mean, n=3): 99.3 µg
- FPD ≦ 5 μm [1, 3]: 44.6 µg
- FPF [1, 3]: 45.0%
- MMAD [1, 3]: 2.9 μm
- Delivered Dose [1, 4]: 95.6 µg
- FPD ≦ 5 μm [1, 4]: 27.1 µg
- FPF [1, 4]: 28.3%
- MMAD [1, 4]: 3.0 μm
- Delivered Dose ([1]; Ex 1, Standard MDI, single can BDP 100 μg/50 ul, 13% ethanol, 1.3% glycerol, 0.22 mm actuator orifice, mean, n=3): 89.8 µg
- FPD ≦ 5 μm [1, 5]: 41.9 µg
- FPF [1, 5]: 46.6%
- MMAD [1, 5]: 3.0 μm
- Delivered Dose [1, 6]: 89.1 µg
- FPD ≦ 5 μm [1, 6]: 26.2 µg
- FPF [1, 6]: 29.4%
- MMAD [1, 6]: 3.3 μm
- Delivered Dose ([1]; Ex 2/3, Standard MDI, single can (BDP 100 μg/50 μl or formoterol fumarate 6 μg/50 μl), 0.22 mm orifice, mean, n=3): 99.3 µg
- FPD ≦ 5 μm [1, 7]: 44.6 µg
- FPF [1, 7]: 45.0%
- MMAD [1, 7]: 2.9 μm
- Delivered Dose ([1]; Ex 2, Dual MDI, Formulation 3 (formoterol fumarate 6 μg/25 μl) + Formulation 4 (BDP 100 μg/25 μl, glycerol) mixed, single 0.22 mm orifice, mean, n=2): 97.9 µg
- FPD ≦ 5 μm [1, 8]: 52.5 µg
- FPF [1, 8]: 53.6%
- MMAD [1, 8]: 2.5 μm
- Delivered Dose ([1]; Ex 4, Dual-MDI, Formulation 6 (BDP 100 μg/25 μl, 26% ethanol) + Formulation 7 (100% HFA 134a, 25 μl), single 0.22 mm orifice, mean, n=2): 86.4 µg
- FPD ≦ 5 μm [1, 9]: 41.1 µg
- FPF [1, 9]: 47.5%
- MMAD [1, 9]: 2.7 μm
- FPD ≦ 5 μm [1, 10]: 26.7 µg
- FPF [1, 10]: 26.5%
- MMAD [1, 10]: 3.5 μm
- Delivered Dose ([1]; Ex 4, Standard MDI, single can BDP 100 μg/25 μl, 26% w/w ethanol, 1.3% glycerol, 0.22 mm orifice, mean, n=2): 100.6 µg
- Delivered Dose [1, 11]: 49.4 µg
- FPD ≦ 5 μm [1, 11]: 18.5 µg
- FPF [1, 11]: 37.3%
- MMAD [1, 11]: 2.6 μm
- Delivered Dose [1, 12]: 38.2 µg
- FPD ≦ 5 μm [1, 12]: 16.8 µg
- FPF [1, 12]: 44.1%
- MMAD [1, 12]: 1.9 μm
- Delivered Dose [1, 13]: 45.5 µg
- FPD ≦ 5 μm [1, 13]: 18.6 µg
- FPF [1, 13]: 40.8%
- MMAD [1, 13]: 1.8 μm
- MMAD ([1]; Ex 6, single can configuration, 0.22 mm actuator, across metered volumes 25-100 μL): 1.1-1.2 μm
- Delivered Dose ([1]; Ex 6, single can, 50 μg dose, metered volume 25 μL (Formulation 9 / 12), 0.22 mm actuator, mean, n=2): 52.0 µg
- FPD ≦ 5 μm [1, 14]: 31.1 µg
- FPF [1, 14]: 59.8%
- MMAD [1, 14]: 1.2 μm
- Delivered Dose ([1]; Ex 6, single can, 50 μg dose, metered volume 50 μL (Formulation 10 / 13), 0.22 mm actuator, mean, n=2): 45.6 µg
- FPD ≦ 5 μm [1, 15]: 24.7 µg
- FPF [1, 15]: 54.0%
- MMAD [1, 15]: 1.2 μm
- Delivered Dose ([1]; Ex 6, single can, 50 μg dose, metered volume 100 μL (Formulation 11 / 14), 0.22 mm actuator, mean, n=2): 48.8 µg
- FPD ≦ 5 μm [1, 16]: 19.2 µg
- FPF [1, 16]: 39.4%
- MMAD [1, 16]: 1.1 μm
- Delivered Dose ([1]; Ex 7, Dual can, Formulations 15+16 (both with glycerol, 50 μg/25 μl) fired simultaneously through dual orifice actuator (0.22 mm), mean, n=2): 41.5 µg
- FPD ≦ 5 μm [1, 17]: 12.7 µg
- FPF [1, 17]: 30.6%
- MMAD [1, 17]: 2.5 μm
- FPD ≦ 5 μm [1, 18]: 17.0 µg
- FPF [1, 18]: 47.2%
- MMAD [1, 18]: 2.3 μm
- Delivered Dose ([1]; Ex 7, Single can, fired individually through dual orifice actuator (0.22 mm), Formulation 15 inverted, Formulation 16 upright, mean, n=2): 36.0 µg
- Delivered Dose ([1]; Ex 9, Dual can, Formulation 17a (budesonide, glycerol) + 18a (BDP, no glycerol) simultaneously through dual orifice actuator, mean, n=2): 40.8 µg
- FPD ≦ 5 μm [1, 19]: 12.7 µg
- FPF [1, 19]: 31.1%
- MMAD [1, 19]: 1.5 μm
- FPD ≦ 5 μm [1, 20]: 16.2 µg
- FPF [1, 20]: 55.8%
- MMAD [1, 20]: 0.9 μm
- Delivered Dose ([1]; Ex 9, Single can, fired individually through dual orifice actuator, Formulation 17a inverted, 18a upright (50 μg/25 μL), mean, n=2): 29.1 µg
- Metered Dose ([1]; Ex 11, Dual can single orifice, Formulation 9 (BDP 50/25) + Formulation 12 (budesonide 50/25, glycerol), 0.30 mm orifice, mean, n=2): 59.5 µg
- Delivered Dose [1, 21]: 55.2 µg
- FPD [1, 21]: 16.3 µg
- FPF [1, 21]: 29.5%
- MMAD [1, 21]: 2.8 μm
- Metered Dose ([1]; Ex 11, Single reservoir conventional MDI, 50 μg/50 μl (Formulation 10 / 13), 0.30 mm orifice, mean, n=2): 52.7 µg
- Delivered Dose [1, 22]: 47.1 µg
- FPD [1, 22]: 16.6 µg
- FPF [1, 22]: 35.2%
- MMAD [1, 22]: 1.3 μm
- MMAD ([1]; Ex 13, BDP formulation 25 μl delivered simultaneously with 100 μl budesonide formulation (glycerol), single 0.30 mm orifice): 3.1 μm
- MMAD ([1]; Ex 13, conventional single reservoir MDI, 0.30 mm orifice): 1.2 μm
- MMAD ([1]; Ex 14a/15, comparative, conventional single reservoir MDI, 0.22 mm orifice, 50 μl valves): 1.3 μm
- MMAD ([1]; Ex 14a/15, dual reservoir-dual orifice, impingement angle 60°, orifice diameter 0.25 mm, separation distance 6.0 mm): 2.3 μm
- actuator deposition ([1]; Ex 14a, 15° impingement, 6.0 mm separation, stated comparable to the standard actuator): 6.1 µg
- MMAD ([1]; Ex 14a, dual reservoir-dual orifice, Formulations 9+12, impingement angle 60°, orifice diameter 0.25 mm, separation distance 17.5 mm): 2.0 μm
- MMAD ([1]; Ex 14a, dual reservoir-dual orifice, impingement angle 15°, orifice diameter 0.25 mm, separation distance 6.0 mm): 1.8 μm
- MMAD ([1]; Ex 14a, dual reservoir-dual orifice, impingement angle 60°, orifice diameter 0.25 mm, separation distance 9.0 mm): 2.1 μm
- MMAD ([1]; Ex 14a, dual reservoir-dual orifice, impingement angle 60°, orifice diameter 0.30 mm, separation distance 2.0 mm): 1.9 μm
- MMAD ([1]; Ex 15, dual reservoir, Formulations 9+12 through a single 0.30 mm diameter orifice): 2.8 μm
- Delivered Dose [1, 23]: 67.6 µg
- FPD [1, 23]: 30.2 µg
- FPF [1, 23]: 44.7%
- MMAD [1, 23]: 1.3 μm
- Metered Dose ([1]; Ex 19, dual reservoir-single orifice prototype (FIG. 14B), BDP/Formoterol 100/6 μg/25 μl + glycopyrronium bromide 12.5 μg/25 μl): 92.8 µg
- Delivered Dose [1, 24]: 60.8 µg
- FPD [1, 24]: 21.2 µg
- FPF [1, 24]: 34.9%
- MMAD [1, 24]: 1.4 μm
- Metered Dose ([1]; Ex 20, triple reservoir-single orifice prototype (FIG. 16B), BDP/Formoterol + glycopyrronium bromide + budesonide 50 μg/25 μl): 85.9 µg
- Plume duration ([2]; valve size 25 μL (Formulation 18a BDP upright, 17a budesonide inverted)): 0.317 s
- Plume duration ([2]; valve size 63 μL (Formulation 18b BDP upright, 17b budesonide inverted)): 0.545 s
